Experimental data taken from article PMC6600393, “Synthesis and Cytostatic Effect of 3’-deoxy-3’-C-Sulfanylmethyl Nucleoside Derivatives with D-xylo Configuration” (Molecules, 2019).
“Also recorded” adds a separate entry of the source.

Columns and labels:
[1] = test system: SCC-VII (mouse squamous carcinoma) cell line; test: MTT cell viability assay on SCC-VII cells; format: cell-based; conditions: for SCC IC50: MTT, 48 h incubation, 5000 cells/well, '-' = no cytotoxicity at 20 µg/mL; for IC50: Mus musculus, 48 h; for SI (selectivity index): HaCaT IC50/SCC IC50
Experimental: (§1) For the investigation of the cytotoxic effect of nucleoside analogues we used healthy human keratinocyte (HaCaT) and tumorous squamous carcinoma SCC-VII cell lines. In the experiments, a standard citotoxicity assay, the MTT assay, was used in a 96-well plate. Importantly, different cell numbers were used in the case of the two different cell lines. The HaCaT cells were seeded 10^4/well concentration while the SCC-VII cells were seeded 5000/well concentration on the plate. In both cases the cells were treated with the nucleoside analogues at ~50% confluence.
SCC-VII is a carcinoma tumor that originally arose in the abdominal wall of C3H mice in Dr. Herman Suit’s laboratory at Harvard University, Boston, Massachusetts. SCC VII cells were grown in Dulbecco’s Modified Eagle’s Medium Nutrient Mixture (DMEM-HAM’S F12) (Sigma-Aldrich) supplemented with 2 mM L-glutamine, 23 mM NaHCO3, 100 U/mL penicillin, 100 U/mL streptomycin 1% non-essential amino acids and 10% fetal bovine serum.
(§2) Cell cultures had been kept under the same conditions during the experiments. Cells were stored at 37 °C, 95% humidity, and 5% CO2 in an incubator. During the MTT-assay, different starter cell number was used because of the cell cycle differences; HaCaT was started with 10.000/well meanwhile SCC VII with 5000/well. After passage, 24 h was assured for the cells to the adhesion. Then incubated with the compounds for 48 h. The experiments were performed in 96 well plates.
(§3) For the dilution of different concentrations of nucleoside analogues were prepared with DMSO 1% (v/v) and DMEM / DMEM-F12/Ham’s F12 cell culture medium.
(§4) After three days of incubation in the cell culture flask, cells were trypsinised into single cell suspensions. Aliquots (200 μL) of each cell suspension were placed in wells of 96-well-plates (Biocenter, Szeged, Hungary). Preliminary tests were conducted with cell numbers 5000 (SCC-VII) and 10,000 (HaCaT) per well. We have been tested five concentrations of each nucleoside analogues (20-10-5-2.5-1.25 µg/mL). The nucleoside analogues were dissolved in DMSO (1 v/v%) and DMEM/ DMEM-F12/Ham’s F12 were added to the wells to produce the required concentrations and the cells were similarly incubated for a further 48 h.
(§5) MTT (Sigma Aldrich, Budapest, Hungary) solution (0.5 mg/mL in PBS) 100 µL was added to each well. The plates were incubated for 1–2 h at 37 ^◦C, the wells aspirated, and MTT formazan extracted with 100 µL of DMSO aided by gentle agitation on a shaker. After 10 min at room temperature, the absorbances were read at 570 nm by an automatic plate reader (WALLAC Victor 2 1420 spectrophotometer), the instrument having been blanked beforehand on a row to which cells had not been added. Percentage viability (respiratory competence) of the population of cells in each well was expressed as: (Absorbance of treated cells/Absorbance of control cells) × 100. IC50 values of the nucleoside analogues were determined by Graphpad.

[2] = test system: HaCaT (human keratinocyte) cell line; test: MTT cell viability assay on HaCaT cells; format: cell-based; conditions: for IC50: Homo sapiens, HaCaT, 48 h; for HaCaT IC50: MTT, 48 h incubation, 10,000 cells/well, '-' = no cytotoxicity at 20 µg/mL
Experimental: as §1
The HaCaT cell line was derived from human skin, the cells spontaneously transformed in vitro during long time incubation. Cells were cultured in DMEM medium (Biocenter, Szeged, Hungary) containing 10% fetal bovine serum (FBS, Hyclon, Logan, UT) and 1% antibiotic-antimycotic mix (Penicillin–Streptomycin–Neomycin).
as §2, §3, §4, §5

With `CC(=O)OC[C@H]1O[C@@H](SC[C@@H]2[C@@H](O[Si](C)(C)C(C)(C)C)[C@H](n3ccc(=O)[nH]c3=O)O[C@@H]2CO[Si](C)(C)C(C)(C)C)[C@H](OC(C)=O)[C@@H](OC(C)=O)[C@@H]1OC(C)=O` [Compound 1] the “SCC IC50” value [1] was “no cytotoxic effect; also recorded: no cytotoxicity; also recorded: complete loss of activity”, the IC50 [1] was > 20 µg/mL and the IC50 [2] was > 20 µg/mL. The “HaCaT IC50” value [2] was “no cytotoxic effect; also recorded: no cytotoxicity; also recorded: complete loss of activity”.

For `CCCSC[C@@H]1[C@@H](O[Si](C)(C)C(C)(C)C)[C@H](n2ccc(=O)[nH]c2=O)O[C@@H]1CO[Si](C)(C)C(C)(C)C` [Compound 2], the “SI (selectivity index)” value [1] was 1.07, the “SCC IC50” value [1] was “remarkable toxic effect” and the IC50 [1] was 11.8 ± 0.22 µM. The IC50 [2] was 12.6 ± 0.22 µM and the “HaCaT IC50” value [2] was “remarkable toxic effect”.

For `CC(=O)OC[C@H]1O[C@@H](SC[C@@H]2[C@@H](O[Si](C)(C)C(C)(C)C)[C@H](n3cc(C)c(=O)[nH]c3=O)O[C@@H]2CO[Si](C)(C)C(C)(C)C)[C@H](OC(C)=O)[C@@H](OC(C)=O)[C@@H]1OC(C)=O` [Compound 3], the “SCC IC50” value [1] was “no cytotoxic effect; also recorded: no cytotoxicity; also recorded: complete loss of activity”, the IC50 [1] was > 20 µg/mL and the IC50 [2] was 22.4 ± 2.91 µM. For the same compound, the “HaCaT IC50” value [2] was “quite toxic”.

For `CC(=O)OCC1OC(SCC2C(CO[Si](C)(C)C(C)(C)C)OC(n3cc(C)c(=O)[nH]c3=O)C2O[Si](C)(C)C(C)(C)C)C(OC(C)=O)C(OC(C)=O)C1OC(C)=O` (stereo not drawn) [Compound 4], the “SCC IC50” value [1] was “no cytotoxic effect; also recorded: no cytotoxicity; also recorded: complete loss of activity”, the IC50 [1] was > 20 µg/mL and the IC50 [2] was > 20 µg/mL. The “HaCaT IC50” value [2] was “no cytotoxic effect; also recorded: no cytotoxicity; also recorded: complete loss of activity”.

For `CCCSC[C@@H]1[C@@H](O[Si](C)(C)C(C)(C)C)[C@H](n2cc(C)c(=O)[nH]c2=O)O[C@@H]1CO[Si](C)(C)C(C)(C)C` [Compound 5, 1-[3’-Deoxy-3’-C-(n-propylsulfanylmethyl)-2’,5’-di-O-(tert-butyldimethylsilyl)-β-D-xylofuranosyl]-thymine], the “SI (selectivity index)” value [1] was 1.46, the “SCC IC50” value [1] was “remarkable toxic effect” and the IC50 [1] was 15.2 ± 1 µM. The IC50 [2] was 22.2 ± 1.7 µM and the “HaCaT IC50” value [2] was “remarkable toxic effect”.

With `Cc1cn([C@@H]2O[C@H](CO[Si](C)(C)C(C)(C)C)[C@@H](O)[C@H]2O[Si](C)(C)C(C)(C)C)c(=O)[nH]c1=O` [Compound 6T, 2’,5’-di-O-tert-butyldimethylsilyl-ribothymidine] the “SI (selectivity index)” value [1] was 0.83, the “SCC IC50” value [1] was “remarkable toxicity” and the IC50 [1] was 18.8 ± 0.74 µM. For the same compound, the IC50 [2] was 15.6 ± 4.45 µM and the “HaCaT IC50” value [2] was “remarkable toxicity”.

For `CCSC[C@@H]1[C@@H](O[Si](C)(C)C(C)(C)C)[C@H](n2cc(C)c(=O)[nH]c2=O)O[C@@H]1CO[Si](C)(C)C(C)(C)C` [Compound 8, 1-[3’-Deoxy-3’-C-(ethylsulfanylmethyl)-2’,5’-di-O-(tert-butyldimethylsilyl)-β-D-xylofuranosyl]-thymine], the “SI (selectivity index)” value [1] was 1.09, the IC50 [1] was 15.5 ± 0.59 µM and the IC50 [2] was 16.9 ± 0.55 µM.

With `Cc1cn([C@@H]2O[C@H](CO[Si](C)(C)C(C)(C)C)[C@H](CSC(C)C)[C@H]2O[Si](C)(C)C(C)(C)C)c(=O)[nH]c1=O` [Compound 9, 1-[3’-Deoxy-3’-C-(i-propylsulfanylmethyl)-2’,5’-di-O-(tert-butyldimethylsilyl)-β-D-xylofuranosyl]-thymine] the “SI (selectivity index)” value [1] was 1.49, the IC50 [1] was 15.2 ± 0.48 µM and the IC50 [2] was 22.7 ± 1.34 µM.

In the case of `Cc1cn([C@@H]2O[C@H](CO[Si](C)(C)C(C)(C)C)[C@H](CSCC(C)C)[C@H]2O[Si](C)(C)C(C)(C)C)c(=O)[nH]c1=O` [Compound 11, 1-[3’-Deoxy-3’-C-(i-butylsulfanylmethyl)-2’,5’-di-O-(tert-butyldimethylsilyl)-β-D-xylofuranosyl]-thymine], the “SI (selectivity index)” value [1] is reported as 0.66, the IC50 [1] is reported as 23.5 ± 0.12 µM and the IC50 [2] is reported as 15.5 ± 2.14 µM.

`Cc1cn([C@@H]2O[C@H](CO[Si](C)(C)C(C)(C)C)[C@H](CSC(C)(C)C)[C@H]2O[Si](C)(C)C(C)(C)C)c(=O)[nH]c1=O` [Compound 12, 1-[3’-Deoxy-3’-C-(t-butylsulfanylmethyl)-2’,5’-di-O-(tert-butyldimethylsilyl)-β-D-xylofuranosyl]-thymine] was tested, and the IC50 [1] was 31.1 ± 0.79 µM and the IC50 [2] was > 34.9 µM.

With `CCCCCCSC[C@@H]1[C@@H](O[Si](C)(C)C(C)(C)C)[C@H](n2cc(C)c(=O)[nH]c2=O)O[C@@H]1CO[Si](C)(C)C(C)(C)C` [Compound 13, 1-[3’-Deoxy-3’-C-(n-hexylsulfanylmethyl)-2’,5’-di-O-(tert-butyldimethylsilyl)-β-D-xylofuranosyl]-thymine] the “SI (selectivity index)” value [1] was 1.44, the IC50 [1] was 15.9 ± 0.32 µM and the IC50 [2] was 22.9 ± 0.57 µM.

`CCCCCCCCSC[C@@H]1[C@@H](O[Si](C)(C)C(C)(C)C)[C@H](n2cc(C)c(=O)[nH]c2=O)O[C@@H]1CO[Si](C)(C)C(C)(C)C` [Compound 14, 1-[3’-Deoxy-3’-C-(n-octylsulfanylmethyl)-2’,5’-di-O-(tert-butyldimethylsilyl)-β-D-xylofuranosyl]-thymine] was tested, and the “SI (selectivity index)” value [1] was 1.02, the IC50 [1] was 26 ± 0.76 µM and the IC50 [2] was 26.4 ± 0.37 µM.

`CCCCCCCCCCCCSC[C@@H]1[C@@H](O[Si](C)(C)C(C)(C)C)[C@H](n2cc(C)c(=O)[nH]c2=O)O[C@@H]1CO[Si](C)(C)C(C)(C)C` [Compound 15, 1-[3’-Deoxy-3’-C-(n-dodecylsulfanylmethyl)-2’,5’-di-O-(tert-butyldimethylsilyl)-β-D-xylofuranosyl]-thymine] was tested, and the “SCC IC50” value [1] was “complete loss of activity”, the IC50 [1] was > 20 µg/mL and the IC50 [2] was > 20 µg/mL. For the same compound, the “HaCaT IC50” value [2] was “complete loss of activity”.

With `Cc1cn([C@@H]2O[C@H](CO[Si](C)(C)C(C)(C)C)[C@H](CSCc3ccccc3)[C@H]2O[Si](C)(C)C(C)(C)C)c(=O)[nH]c1=O` [Compound 16, 1-[3’-Deoxy-3’-C-(benzylsulfanylmethyl)-2’,5’-di-O-(tert-butyldimethylsilyl)-β-D-xylofuranosyl]-thymine] the “SI (selectivity index)” value [1] was 0.98, the IC50 [1] was 14.6 ± 0.19 µM and the IC50 [2] was 14.3 ± 0.36 µM.

For `Cc1cn([C@@H]2O[C@H](CO[Si](C)(C)C(C)(C)C)[C@H](CSCCO)[C@H]2O[Si](C)(C)C(C)(C)C)c(=O)[nH]c1=O` [Compound 17, 1-[3’-Deoxy-3’-C-(2-hydroxyethylsulfanylmethyl)-2’,5’-di-O-(tert-butyldimethylsilyl)-β-D-xylofuranosyl]-thymine], the “SI (selectivity index)” value [1] was 0.91, the IC50 [1] was 16 ± 0.17 µM and the IC50 [2] was 14.6 ± 0.82 µM.

`CCCCSC[C@@H]1[C@@H](O[Si](C)(C)C(C)(C)C)[C@H](n2ccc(=O)[nH]c2=O)O[C@@H]1CO[Si](C)(C)C(C)(C)C` [Compound 18, 1-[3’-Deoxy-3’-C-(n-butylsulfanylmethyl)-2’,5’-di-O-(tert-butyldimethylsilyl)-β-D-xylofuranosyl]-uracil] was tested, and the “SI (selectivity index)” value [1] was 1.32, the IC50 [1] was 10.9 ± 0.18 µM and the IC50 [2] was 14.4 ± 1.59 µM.

With `CCSC[C@@H]1[C@@H](O)[C@H](n2cc(C)c(=O)[nH]c2=O)O[C@@H]1CO` [Compound 19, 1-[3’-Deoxy-3’-C-(n-ethylsulfanylmethyl)-β-D-xylofuranosyl]-thymine] the “SCC IC50” value [1] was “did not show any cytotoxic activity; also recorded: no activity”, the IC50 [1] was > 20 µg/mL and the IC50 [2] was > 20 µg/mL. For the same compound, the “HaCaT IC50” value [2] was “did not show any cytotoxic activity; also recorded: no activity”.

Compound `CN(Cc1cnc2nc(N)nc(N)c2n1)c1ccc(C(=O)N[C@@H](CCC(=O)O)C(=O)O)cc1` [Methotrexate, reference compound] has an IC50 [1] of 216 ± 2.33 µM and an IC50 [2] of 290.4 ± 2.76 µM.
